Source: patent publication EP0134242B1, “[…] ANTIGEN” (NEW YORK UNIVERSITY, priority 1983, dated 1984)

Legend:
[1] = test system: 2G3, 5H8, and 8B8 antibodies; test: Inhibition immunoassays with peptide analogs, results in words for several antibodies together; type: binding, mouse; conditions: for inhibition of the reaction of antibodies 2G3, 5H8 and 8B8 with the antigen (in words): P. knowlesi CS protein as antigen
Experimental: (§1) Competitive inhibition of the antigen-antibody reaction by the thus synthesized peptides was measured by the following radioimmunoassay. P.knowlesi sporozoite CS protein was used as the antigen. • a) Preparation of antigen: 3,000 purified P. knowlesi sporozoites (Vanderberg et al., Military Medicine 134:1183, 1969) in 50 µl of phosphate buffered saline (PBS) containing protease inhibitors, were delivered to the bottom of polystyrene (Falcon 3911 plate, B-D and Co., Oxnard, Calif.) microtiter plates, which were sealed with parafilm and frozen at -70°C for at least ten minutes. The plates were then allowed to defrost slowly at room temperature. This procedure was repeated six times. Then the plates were incubated at 4°C overnight, and at 56°C for five minutes. The P. knowlesi extract was then removed from the wells and these were washed three times with PBS containing 1% bovine serum albumin (BSA) and 0.1% NaN₃. The wells were then filled with PBS-BSA-NaN₃ and incubated for a few hours at room temperature. • b) Preparation of peptides and two-site radio immunoassay to determine the inhibitory activity of the analogs; • (1) All synthetic peptides were dissolved in PBS at a concentration of 10 mM and subsequently diluted serially in PBS-1% BSA/0.1%NaN₃. Twenty-five µl of serial dilutions of each peptide were added to the wells coated with antigen. Control wells received only the diluent. Then, 25 µl of the ¹²⁵I-labelled monoclonal antibody (about 5-10ng, 10⁵cpm) were added to the wells. The microtiter plates were incubated at 4°C for 18 hours, washed 5 times with PBS-BSA-NaN₃ and then the wells were counted for well-bound antibody.
The series of shorter analogs and one peptide overlapping two epitopes (7-6) shown in Table VII was used to analyze the specificity of the 2G3, 5H8, and 8B8 antibodies using the inhibition immunoassays described in Examples 10 and 11. […] On a molar basis, their activities were similar, although in some instances the larger peptides appeared to be slightly better inhibitors. […]

[2] = test system: monoclonal antibody (2G3); test: Inhibition by 12-MER of the binding of P. knowlesi CS protein to monoclonal antibody 2G3 (two-site assay); design: species or system mouse
Experimental: To distinguish between these possibilities, an assay was conducted to determine the ability of the 12-MER to inhibit the interaction between the CS proteins of P.knowlesi and the monoclonal antibody 2G3. The inhibition assay was performed as follows: Wells of microtiter plates were coated with the monoclonal antibody 2G3 washed with Tween-20, saturated with BSA as described supra. In one series of tubes, the 12-MER was serially diluted in PBS-BSA-Tween 20. In a second series of tubes, an extract of P.knowlesi sporozoites (prepared as described by Cochrane, et al, supra) was serially diluted in PBS-BSA-Tween 20. Aliquots of each dilution of sporozoites were mixed with equal volumes of all dilutions of 12-MER. 30 µl of these mixtures were then added to the bottom of the 2G3-coated wells. As positive and negative controls, 30 µl aliquots of sporozoite dilutions mixed with PBS-BSA-Tween 20 were added to other wells which had been precoated with 2G3 or with a non-relevant monoclonal antibody. After overnight incubation in the refrigerator, the wells were washed and 50 µl (10 ug) of ¹²⁵I-labeled 2G3 diluted in PBS-BSA-Tween 20 were added. Following an additional incubation at room temperature for 1 hour, the wells were washed and counted in a gamma counter. The results are shown in Table V. The 12-MER inhibited, in a dose-dependent fashion, the interaction of the P.knowlesi CS protein with 2G3.

monoclonal antibody 2G3 = test: Two-site immunoradiometric assay with monoclonal antibody 2G3 and synthetic peptides; type: binding, mouse
Experimental: Wells of microtiter plates (Falcon 3911) were incubated overnight at 4°C with 50 µl of a 10 µg/ml solution in PBS of the monoclonal 2G3 anti-CS protein of P.knowlesi. The wells were washed with PBS and then incubated for 2 hours at room temperature, with PBS-Tween 20 (0.05% (w/v), and then for 3 additional hours with PBS-BSA (1% (w/v). The synthetic peptides were diluted serially in PBS-BSA-Tween 20, and 30 µl aliquots of the dilutions were delivered to the bottom of individual wells. The plates were incubated overnight in the refrigerator, washed with PBS-BSA-Tween 20, and incubated with 5.0 µl (10 ng) of ¹²⁵I-labeled monoclonal antibody 2G3 diluted in PBS-BSA-Tween 20 (about 100,000 cpm). Controls consisted of plates coated with a non-relevant monoclonal antibody of the same isotype as 2G3. Specific counts were found only in wells incubated with the 24-MER and they were proportional to the dose of peptide added to the well.

antibody 8E11 = test: Inhibition by synthetic peptides of binding of radiolabelled monoclonal antibody to CS protein (radioimmunoassay); design: species or system mouse; conditions: at a concentration of 10⁻²M
Experimental: as §1, with “The wells were then filled with PBS-BSA-NaN₃ and incubated for a few hours at room temperature. • b) Preparation of peptides and two-site radio immunoassay to determine the inhibitory activity of the analogs; • (1) All synthetic peptides were dissolved in PBS at a concentration of 10 mM and subsequently diluted serially in PBS-1% BSA/0.1%NaN₃. Twenty-five µl of serial dilutions of each peptide were added to the wells coated with antigen. Control wells received only the diluent. Then, 25 µl of the ¹²⁵I-labelled monoclonal antibody (about 5-10ng, 10⁵cpm) were added to the wells.” left out, “antibody. […]” for “antibody.”

| Substance | inhibition of the reaction of antibodies 2G3, 5H8 and 8B8 with the antigen (in words) [1] | activity in the inhibition assays of the foregoing Examples (in words) ([1]; assayed as in the foregoing Examples (antibodies 2G3, 5H8, 8B8, 8E11)) | Amount of 2G3 bound (cpm) in the presence of the 12-MER inhibitor ([2]; 12-MER 0.08 mg/ml, P. knowlesi extract 10³ sporozoites/ml (no inhibitor: 156)) [cpm] | Amount of 2G3 bound (cpm) in the presence of the 12-MER inhibitor ([2]; 12-MER 0.08 mg/ml, P. knowlesi extract 10⁴ sporozoites/ml (no inhibitor: 1353)) [cpm] | Amount of 2G3 bound (cpm) in the presence of the 12-MER inhibitor ([2]; 12-MER 0.08 mg/ml, P. knowlesi extract 10⁵ sporozoites/ml (no inhibitor: 4390)) [cpm] | Amount of 2G3 bound (cpm) in the presence of the 12-MER inhibitor ([2]; 12-MER 0.08 mg/ml, P. knowlesi extract 10⁶ sporozoites/ml (no inhibitor: 5582)) [cpm] | Amount of 2G3 bound (cpm) in the presence of the 12-MER inhibitor ([2]; 12-MER 0.6 mg/ml, P. knowlesi extract 10³ sporozoites/ml (no inhibitor: 156)) [cpm] | Amount of 2G3 bound (cpm) in the presence of the 12-MER inhibitor ([2]; 12-MER 0.6 mg/ml, P. knowlesi extract 10⁴ sporozoites/ml (no inhibitor: 1353)) [cpm] | Amount of 2G3 bound (cpm) in the presence of the 12-MER inhibitor ([2]; 12-MER 0.6 mg/ml, P. knowlesi extract 10⁵ sporozoites/ml (no inhibitor: 4390)) [cpm] | Amount of 2G3 bound (cpm) in the presence of the 12-MER inhibitor ([2]; 12-MER 0.6 mg/ml, P. knowlesi extract 10⁶ sporozoites/ml (no inhibitor: 5582)) [cpm] | Amount of 2G3 bound (cpm) in the presence of the 12-MER inhibitor ([2]; 12-MER 5.0 mg/ml, P. knowlesi extract 10³ sporozoites/ml (no inhibitor: 156)) [cpm] | Amount of 2G3 bound (cpm) in the presence of the 12-MER inhibitor ([2]; 12-MER 5.0 mg/ml, P. knowlesi extract 10⁴ sporozoites/ml (no inhibitor: 1353)) [cpm] | Amount of 2G3 bound (cpm) in the presence of the 12-MER inhibitor ([2]; 12-MER 5.0 mg/ml, P. knowlesi extract 10⁵ sporozoites/ml (no inhibitor: 4390)) [cpm] | Amount of 2G3 bound (cpm) in the presence of the 12-MER inhibitor ([2]; 12-MER 5.0 mg/ml, P. knowlesi extract 10⁶ sporozoites/ml (no inhibitor: 5582)) [cpm] | Amount of radiolabeled 2G3 (cpm) bound in wells (monoclonal antibody 2G3; peptide 5. µg/ml incubated with the solid-phase antibody 2G3) [cpm] | Amount of radiolabeled 2G3 (cpm) bound in wells (monoclonal antibody 2G3; peptide 50. µg/ml incubated with the solid-phase antibody 2G3) [cpm] | Amount of radiolabeled 2G3 (cpm) bound in wells (monoclonal antibody 2G3; peptide 500. µg/ml incubated with the solid-phase antibody 2G3) [cpm] | Amount of radiolabeled 2G3 (cpm) bound in wells (monoclonal antibody 2G3; peptide .5 µg/ml incubated with the solid-phase antibody 2G3) [cpm] | inhibitory effect on binding of radiolabelled 8E11 to the CS protein (antibody 8E11) |
| --- | --- | --- | --- | --- | --- | --- | --- | --- | --- | --- | --- | --- | --- | --- | --- | --- | --- | --- | --- |
| Asp₅-Gly-Ala-Asn-Ala-Gly-Gln-Pro₁₂ [5 - 12] | strongly inhibitory |  |  |  |  |  |  |  |  |  |  |  |  |  |  |  |  |  |  |
| Ala₇-Asn₈-Ala₉-Gly₁₀-Gln₁₁-Pro₁₂-Gln₁-Ala₂-Gln₃-Gly₄-Asp₅-Gly₆ |  | inactive |  |  |  |  |  |  |  |  |  |  |  |  |  |  |  |  |  |
| H₂N-GlnAlaGlnGlyAspGlyAla-AsnAlaGlyGlnPro-COOH (H-QAQGDGANAGQP-OH) [Peptide 12-MER] | strongly inhibitory |  | 72 | 102 | 1221 | 3893 | 0 | 70 | 781 | 3018 | 37 | 3 | 361 | 1099 | 40 | 103 | 157 | 0 | no appreciable inhibitory effect |
